Test results reported in US8981112B2, “Inhibitors of β-secretase” (Boehringer Ingelheim International GmbH, priority 2012, dated 2015).

What was measured:
hERG = hERG (Homo sapiens (Human), UniProt Q12809); assay: hERG-Channel Assay (Assay 3), whole-cell patch clamp; assay type: cell-based; conditions: human, HEK293 cells stably transfected with hERG, pH 7.4; 10 μM, HEK293 cells transfected with hERG
Excerpt: hERG-Channel Assay (Assay 3)
HEK (human embryonic kidney) 293 cells were stably transfected with hERG cDNA.
Cells were superfused with a bath solution containing (mM): NaCl (137), KCl (4.0), MgCl2 (1.0), CaCl2 (1.8), Glucose (10), HEPES (10), pH 7.4 with NaOH. Patch pipettes were made from borosilicate glass tubing using a horizontal puller and filled with pipette solution containing (mM): K-aspartate (130), MgCl2 (5.0), EGTA (5.0), K2ATP (4.0), HEPES (10.0), pH 7.2 with KOH. Resistance of the microelectrodes was in the range between 2 and 5 MΩ.
Membrane currents were recorded using an EPC-10 patch clamp amplifier and PatchMaster software. hERG-mediated membrane currents were recorded at 35° C., using the whole-cell configuration of the patch-clamp technique. Transfected HEK293 cells were clamped at a holding potential of −60 mV and hERG-mediated inactivating tail currents were elicited using a pulse pattern with fixed amplitudes (activation/inactivation: 40 mV for 2000 ms; recovery: −120 mV for 2 ms; ramp to 40 mV in 2 ms; inactivating tail current: 40 mV for 50 ms) repeated at 15 s intervals. During each inter-pulse interval 4 pulses scaled down by a factor of 0.2 were recorded for a P/n leak subtraction procedure. Rs compensation was employed up to a level that safely allowed recording devoid of ringing.
The different concentrations of the test compound were applied sequentially on each of the different cells investigated. A steady state level of baseline current was measured for at least 6 sweeps prior to the application of the first test compound concentration.
The test compound was dissolved in DMSO to yield a master stock solution which was diluted further in DMSO to stock solutions needed for the lower concentrations. Final dilutions in extracellular buffer were prepared freshly from these stocks by a 1:1000 dilution step each before starting the experiments.
Peak current amplitudes were measured 3 ms after the ramp to +40 mV. For baseline and each concentration the peak currents of the three last sweeps before application of the next concentration were averaged. Residual currents (I/I0) were calculated for each cell as the fraction of actual average peak current and average baseline peak current. Results are presented as percent (%) inhibition (1−I/I0)*100% at 10 μM.

[1] = tested on: production of Abeta1-x peptides in H4 neuroglioma cell line stably expressing human APP; assay: H4-APPwt Cell-Based Assay (Assay 2), Abeta1-x production; conditions: H4 neuroglioma cells expressing human APP, Abeta1-x; read-out: H4-APPwt cell IC50 nM (assay 2)
Method: H4-APPwt Cell-Based Assay (Assay 2)
Cellular potency of the compounds of the invention was assessed in an assay monitoring production of Abeta1-x peptides in the H4 neuroglioma cell line (ATCC, Cat. #HTB-148) stably expressing human APP, using an immunoassay such as AlphaLISA (PerkinElmer, Cat.# AL288). Tested compounds were dissolved in DMSO and pre-diluted in the culture medium (DMEM containing 10% FBS and 1% penicillin/streptomycin) to achieve twice the final concentration of the compounds in the assay. Equal volumes of the 2× solutions of the tested compounds and cell suspension were added to a 96-well culture plate, so that each well contained ˜10,000 cells in a final volume of 200 μl. Final concentration of DMSO in the assay was 0.2%. The plates were incubated for 5 hrs at 37° C., 5% CO2 to allow cells to attach to the bottom of the wells in the presence of the tested compounds. Then the media was removed and replaced with fresh media containing tested compounds at the same final concentration. The plates were incubated for 18 hrs at 37° C., 5% CO2. Concentrations of Ab1-x were determined using AlphaLISA immunoassay (PerkinElmer, Cat.# AL288) following manufacturer's protocol. Concentrations of Abeta1-x in the wells containing either DMSO or 10 μM beta-secretase inhibitor (BACE inhibitor IV, EMD Bioscience, Cat. #565788) were used as uninhibited and background controls, correspondingly, for calculating percent inhibition values for each well with the tested compounds.

[2] = tested on: brain amyloid peptides Aβ1-x; assay: Rat Brain Aβ Lowering Assay (Assay 5); assay type: in vivo; conditions: 3 hrs after dosing
Method: Rat Brain Aβ Lowering Assay (Assay 5)
The animals were sacrificed 3 hrs after dosing, and brains were excised, dissected into cerebellum and left and right cerebra and flash-frozen in liquid nitrogen.
The cerebrum was homogenized (5 volumes per weight) in 20 mM Tris-HCL, pH 8.5, 0.2% Triton-X100 supplemented with protease inhibitors (complete, Roche Applied Science) at 4° C. using a glass Dounce homogenizer. The homogenate was centrifuged at 120,000×g for 60 min at 4° C., and the supernatant was collected and analyzed for Ab1-x using immunoassay with chemiluminescent detection (Meso-Scale Discovery, Rockville, Md. (MSD)).
Streptavidin 96-well plates (MSD) were pre-blocked with 5% Blocker A solution (MSD) for 1 hr at rt on an orbital shaker and washed 4 times with phosphate buffered saline (PBS). The wells were pre-coated with 20 ng/well of biotinylated antibody SIG-39155 (Clone M3.2, specific for amino acids 10-15 of the rodent Aβ) for 1 hr at rt and washed 4 times with PBS. For Aβ1-x analysis, 25 μl of either the cleared brain lysates or Aβ1-40 standards (8-500 pg/ml, with 2× increment) were incubated for 1 hr at rt with constant shaking. The wells were washed 4 times with PBS, and 25 μl of the detection antibody (Sulfo-TAG labeled anti-Aβ40 antibody supplied by MSD) was added and incubated for 1 hr at rt. After 4 washes with PBS, 150 μl of the chemiluminescence detection reagent (Read Buffer T, MSD) was added, and the plate was read on an MSD Sector Imager 6000 instrument. The calibration curve was fit into a non-linear four-parameter regression model, and the Aβ1-x concentrations were calculated for each well containing the cleared brain lysates. The percent of Aβ lowering was calculated based on the difference with the average Aβ concentration obtained for the brains from the animals treated with vehicle alone.

[3] = In Vitro Phospholipidosis Assay (Assay 4), Nile red staining; assay type: cell-based; conditions: human, first effect concentration, U937 cells, read-out: Phospholipidosis FEC IC50 μM (assay 4)
Method: In Vitro Phospholipidosis Assay (Assay 4)
The phospholipidogenic potential of test compounds was assayed using the human hematopoetic U937 cell line. The test principle was to analyze the phospholipid content by staining the cells with the fluorescent dye Nile red.
U937 cells were seeded into cell culture plates at 0.5×10^6 cells/mL in RPMI medium containing 10% FBS, 1% DMSO, and 0.005% gentamicin. The cells were then cultivated with or without different concentrations of test compounds for 48 h under standard culture conditions.
For harvesting the cells were centrifuged at 130×g for 4 min and washed once with PBS. Then 2×0.5 mL cell suspension was prepared for non-fixed cell measurement (0.5 mL for propidium iodide (PI) viability measurement and 0.5 mL for Nile red measurement).
The remaining cells were fixed with 3.7% formaldehyde for 30 min. After a further centrifugation step cells were resuspended with 1.3 mL Nile red working solution (1 μg/mL) and incubated for 5 min at rt. The cell suspension was then washed twice with 3 mL PBS and centrifuged with 130×g for 4 min. The supernatant was discarded and the cells were resuspended with 0.5 mL PBS and kept for flow cytometry measurement. For Nile red staining of the 0.5 mL non-fixed cell samples, 50 μL of a ready to use Nile red solution (10 μg/mL) were added per sample. Samples were kept on ice for 5 min. Thereafter, they were washed once with 4 mL PBS (4° C., 250×g for 8 min) and finally resuspended in 400 μL PBS and kept for flow cytometry measurement.
For the viability measurement, 12.5 μL of the ready to use PI solution (10 μg/mL) were added to the 0.5 mL non-fixed cell suspension. After 15 min of incubation on ice, the samples were measured by flow cytometry using a Coulter Epics XL/MCL flow cytometer.
The viability of the cells of each sample was determined by flow cytometry measurement of the PI content at channel 2 (568-590 nm). Cut-off gates for the fluorescence-dependent differentiation between live and dead cells were defined based on the analysis of cell culture medium control samples.
Only samples with a cell viability of >=90% relative to control samples were analyzed for phospholipidosis. For that, each Nile red sample (non-fixed and fixed samples) was measured by flow cytometry at channel 1 (504-541 nm) and channel 4 (660-680 nm).
For each channel, relative Nile red fluorescence intensity of a test sample was calculated compared to control samples and expressed as percentage of control fluorescence intensity. The assessment of the phospholipidogenic potential and the first effect concentration (FEC) of a test compound was done manually based on the fluorescence intensities at both wavelengths for the fixed cells as well as for the non-fixed cells.

hERG, sequence (Q12809 whole entry): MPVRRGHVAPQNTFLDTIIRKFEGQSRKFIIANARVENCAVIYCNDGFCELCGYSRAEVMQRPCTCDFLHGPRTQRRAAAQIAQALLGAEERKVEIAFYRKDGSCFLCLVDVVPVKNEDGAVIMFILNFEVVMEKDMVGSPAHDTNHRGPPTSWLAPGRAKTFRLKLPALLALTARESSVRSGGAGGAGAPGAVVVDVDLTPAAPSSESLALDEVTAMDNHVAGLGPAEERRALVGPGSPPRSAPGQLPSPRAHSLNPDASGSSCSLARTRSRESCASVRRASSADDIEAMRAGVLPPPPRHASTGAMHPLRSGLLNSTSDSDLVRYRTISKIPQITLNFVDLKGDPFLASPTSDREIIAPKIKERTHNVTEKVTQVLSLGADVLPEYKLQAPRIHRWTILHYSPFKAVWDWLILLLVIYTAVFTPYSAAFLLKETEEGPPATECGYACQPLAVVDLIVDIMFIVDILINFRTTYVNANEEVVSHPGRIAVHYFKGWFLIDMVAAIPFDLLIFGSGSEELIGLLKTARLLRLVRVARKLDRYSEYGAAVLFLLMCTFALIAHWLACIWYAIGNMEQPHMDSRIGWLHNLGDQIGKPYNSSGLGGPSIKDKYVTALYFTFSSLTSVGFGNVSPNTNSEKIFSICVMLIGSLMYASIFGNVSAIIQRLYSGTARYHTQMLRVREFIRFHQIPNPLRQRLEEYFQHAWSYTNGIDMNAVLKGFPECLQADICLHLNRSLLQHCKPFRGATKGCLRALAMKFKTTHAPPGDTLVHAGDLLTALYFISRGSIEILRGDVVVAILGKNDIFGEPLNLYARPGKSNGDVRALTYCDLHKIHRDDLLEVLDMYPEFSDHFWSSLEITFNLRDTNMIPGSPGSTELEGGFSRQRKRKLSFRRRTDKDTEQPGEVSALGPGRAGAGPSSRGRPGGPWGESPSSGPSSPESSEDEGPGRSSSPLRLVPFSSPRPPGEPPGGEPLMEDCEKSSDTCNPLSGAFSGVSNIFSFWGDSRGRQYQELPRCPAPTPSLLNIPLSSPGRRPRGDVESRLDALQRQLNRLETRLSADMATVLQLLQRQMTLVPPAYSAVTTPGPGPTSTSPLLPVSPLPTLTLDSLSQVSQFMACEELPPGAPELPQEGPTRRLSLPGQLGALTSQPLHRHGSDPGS

IC50 [1] [nM] | SMILES | inhibition at 10 µM (hERG) [%] | % Aβ Reduction ([2]; single oral dose 12.5 mg/kg) [%] | IC50 at 48 h [3] [µM] | % Aβ Reduction ([2]; single oral dose 25 mg/kg) [%] | % Aβ Reduction ([2]; single oral dose 50 mg/kg) [%]
0.5 | CC[C@@H]1C[C@]2(CC[C@H]1OC)Cc1ccc(C#N)cc1[C@]21N=C(N)N(C[C@H]2COCCO2)C1=O [Example 28] | 9 | 30 | 400 |  | 
0.28 | CO[C@H]1[C@H](C)C[C@@]2(Cc3ccc(C#N)cc3[C@]23N=C(N)N(CC2(C)OCCO2)C3=O)C[C@@H]1C [Example 20] | 8 |  | > 400 | 73 | 
0.3 | CO[C@H]1[C@H](C)C[C@@]2(Cc3ccc(F)cc3[C@]23N=C(N)N(CC2(C)OCCO2)C3=O)C[C@@H]1C [Example 29] | 7 |  | 200 | 78 | 
1.24 | CO[C@H]1CC[C@@]2(Cc3ccc(C#N)cc3[C@]23N=C(N)N(Cc2ncccn2)C3=O)C[C@@H]1C [Example 6] | 35 |  | 200 |  | 60
